From US20110201564A1, “SUBSTITUTED 7-SULFANYLMETHYL, 7-SULFINYLMETHYL AND 7-SULFONYLMETHYL INDOLES AND USE THEREOF” (BAYER SCHERING PHARMA AKTIENGESELLSCHAFT, priority 2008, published 2011) come the findings set out here.

pIC50: −log10 of the molar value.

Type in all cases: cell-based
In one assay the target is T1, androgen receptor (AR) (Homo sapiens, UniProt P10275).
T1 construct: of the androgen receptor (AR, amino acids 667-919); expressed in transfected cells; host or cells: CHO K1
T1 sequence (P10275 668-920): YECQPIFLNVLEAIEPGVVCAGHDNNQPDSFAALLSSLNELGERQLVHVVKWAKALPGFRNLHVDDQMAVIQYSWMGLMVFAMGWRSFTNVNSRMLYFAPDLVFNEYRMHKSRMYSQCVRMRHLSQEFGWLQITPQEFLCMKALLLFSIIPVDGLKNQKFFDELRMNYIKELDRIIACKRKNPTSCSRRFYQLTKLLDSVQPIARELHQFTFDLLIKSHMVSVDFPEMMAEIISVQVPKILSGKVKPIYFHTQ
Description: Cellular in vitro assay, GAL4-AR chimera luciferase reporter in CHO K1 cells (selectivity). The settings on record: antagonism vs dihydrotestosterone; CHO K1 GAL4-AR LBD luciferase reporter. An excerpt: (§1) 1. Cellular In Vitro Assay to Determine the Inhibitory MR Activity and MR Selectivity Compared with Other Steroid Hormone Receptors
(§2) Antagonists of the human mineralocorticoid receptor (MR) are identified, and the activity of the compounds described herein is quantified with the aid of a recombinant cell line. The cell is originally derived from a hamster ovary epithelial cell (Chinese Hamster Ovary, CHO K1, ATCC: American Type Culture Collection, VA 20108, USA).
(§3) An established chimera system in which the ligand-binding domains of human steroid hormone receptors are fused to the DNA-binding domain of the yeast transcription factor GAL4 is used in this CHO K1 cell line. The GAL4-steroid hormone receptor chimeras produced in this way are cotransfected and stably expressed with a reporter construct in the CHO cells.
(§4) To generate the GAL4-steroid hormone receptor chimeras, the GAL4 DNA-binding domain (amino acids 1-147) from the vector pFC2-dbd (from Stratagene) is cloned with the PCR-amplified ligand-binding domains of the mineralocorticoid receptor (MR, amino acids 734-985), of the progesterone receptor (PR, amino acids 680-933) and of the androgen receptor (AR, amino acids 667-919) into the vector pIRES2 (from Clontech). The reporter construct, which comprises five copies of the GAL4 binding site upstream of a thymidine kinase promoter, leads to expression of firefly luciferase (Photinus pyralis) after activation and binding of the GAL4-steroid hormone receptor chimeras by the respective specific agonists aldosterone (MR), dexamethasone (GR), progesterone (PR) and dihydrotestosterone (AR).
(§5) The MR, PR and AR cells are plated out in medium (Optimem, 2.5% FCS, 2 mM glutamine, 10 mM HEPES) in 96- (or 384- or 1536-)well microtiter plates on the day before the assay and are kept in a cell incubator (96% humidity, 5% v/v CO2, 37° C.). On the day of the assay, the substances to be tested are taken up in the abovementioned medium and added to the cells. About 10 to 30 minutes after addition of the test substances, the respective specific agonists of the steroid hormone receptors are added. After a further incubation time of 5 to 6 hours, the luciferase activity is measured with the aid of a video camera. The measured relative light units as a function of the substance concentration result in a sigmoidal stimulation curve. The IC50 values are calculated with the aid of the GraphPad PRISM computer program (Version 3.02).
Background: Reporter assays use an easily measured gene product as a stand-in for the process of interest.

The target of assay [1] is T2, progesterone receptor (PR) (Homo sapiens, UniProt P06401).
T2 construct: of the progesterone receptor (PR, amino acids 680-933); expressed in transfected cells; host or cells: CHO K1
T2 sequence (P06401 680-933): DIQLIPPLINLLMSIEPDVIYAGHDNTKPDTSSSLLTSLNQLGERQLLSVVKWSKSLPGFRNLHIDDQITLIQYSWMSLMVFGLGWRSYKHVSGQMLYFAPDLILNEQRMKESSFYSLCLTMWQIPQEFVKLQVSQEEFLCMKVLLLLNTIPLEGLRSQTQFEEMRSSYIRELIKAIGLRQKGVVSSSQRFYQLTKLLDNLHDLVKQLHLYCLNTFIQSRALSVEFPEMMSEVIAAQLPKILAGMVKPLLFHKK
The experiment in a line: Cellular in vitro assay, GAL4-PR chimera luciferase reporter in CHO K1 cells (selectivity). Conditions: antagonism vs progesterone; CHO K1 GAL4-PR LBD luciferase reporter.
From the text: as §1, §2, §3, §4, §5

Assay [2] deals with T3, human mineralocorticoid receptor (MR) (Homo sapiens, UniProt P08235).
T3 construct: expressed in transfected cells; host or cells: CHO K1
T3 sequence (P08235 734-984 limits assumed): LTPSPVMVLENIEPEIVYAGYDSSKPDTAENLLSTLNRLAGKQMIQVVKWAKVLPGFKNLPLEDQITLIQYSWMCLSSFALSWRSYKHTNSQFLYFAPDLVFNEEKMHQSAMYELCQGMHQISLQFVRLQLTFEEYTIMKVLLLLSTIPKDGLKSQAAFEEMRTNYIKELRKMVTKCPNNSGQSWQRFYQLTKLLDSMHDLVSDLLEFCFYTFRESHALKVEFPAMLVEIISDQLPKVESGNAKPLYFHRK
Description: Cellular in vitro assay, GAL4-MR chimera luciferase reporter in CHO K1 cells (inhibitory MR activity). Conditions: antagonism vs aldosterone; CHO K1 GAL4-MR LBD luciferase reporter.
From the text: as §1, §2, §3, §4, §5

On to `CS(=O)(=O)Cc1cccc2c(C(CCC#N)c3ccc(C(F)(F)F)cc3F)c[nH]c12` (stereo not shown) [Example 68, 4-[2-Fluoro-4-(trifluoromethyl)phenyl]-4-{7-[(methylsulfonyl)methyl]-1H-indol-3-yl}butanonitrile], for which the pIC50 against androgen receptor (AR) is 5.29; in assay [1], 5.41; in assay [2], 6.72.
On the same counts, the results for `C[S+]([O-])Cc1cc(F)cc2c(C(CCC#N)c3ccc(Cl)cc3Cl)c[nH]c12` (mixture of isomers) [Example 82, 4-(2,4-Dichlorophenyl)-4-{5-fluoro-7-[(methylsulfinyl)methyl]-1H-indol-3-yl}butanonitrile] are 5.12, 5.24 and 6.68.
As for `CCC(CCC#N)(c1ccc(Cl)cc1)c1c[nH]c2c(CSC)cccc12` (stereo not shown) [Example 157, 4-(4-Chlorophenyl)-4-{7-[(methylsulfanyl)methyl]-1H-indol-3-yl}hexanonitrile], the negative logarithm of the IC50 (pIC50) was 5.47 against androgen receptor (AR), 5.67 in assay [1] and 7.74 in assay [2].
Take `CSCc1cccc2c(C(C)(c3ccc(C(F)(F)F)cc3)C3CC3C#N)c[nH]c12` (stereo not shown) [Example 177, 2-(1-{7-[(Methylsulfanyl)methyl]-1H-indol-3-yl}-1-[4-(trifluoromethyl)phenyl]ethyl)cyclopropanecarbonitrile]: the negative logarithm of the IC50 (pIC50) was 5.71 against androgen receptor (AR), 5.24 in assay [1] and 7.11 in assay [2].
On the same counts, the results for `CSCc1cccc2c(C(CCC#N)c3ccc(Cl)cc3F)c[nH]c12` (single isomer, unassigned) [Example 38-1, 4-(4-Chloro-2-fluorophenyl)-4-{7-[(methylsulfanyl)methyl]-1H-indol-3-yl}butanonitrile] are 5.95, 5.82 and 7.80.
On the same counts, the results for `CS(=O)(=O)Cc1cccc2c(C(CCC#N)c3ccc(Cl)cc3Cl)c[nH]c12` (stereo not shown) [Example 62, 4-(2,4-Dichlorophenyl)-4-{7-[(methylsulfonyl)methyl]-1H-indol-3-yl}butanonitrile] are 5.15, 4.89 and 7.22.
On the same counts, the results for `C[S+]([O-])Cc1cccc2c(C(c3ccc(F)cc3)c3ccc(Cl)cc3F)c[nH]c12` (mixture of isomers) [Example 130, 3-[(4-Chloro-2-fluorophenyl)(4-fluorophenyl)methyl]-7-[(methylsulfinyl)methyl]-1H-indole] are 5.24, 5.05 and 7.00.
For the molecule `CS(=O)(=O)Cc1cccc2c(C(CCCC#N)c3ccc(Cl)cc3)c[nH]c12` (stereo not shown) [Example 70, 5-(4-Chlorophenyl)-5-{7-[(methylsulfonyl)methyl]-1H-indol-3-yl}pentanonitrile], the values for the pIC50 (at androgen receptor (AR); in assay [1]; in assay [2]) were 5.02, 5.11 and 6.60, respectively.
On the same counts, the results for `CSCc1cc(F)cc2c(C(c3ccc(C)cc3)C3CC3C#N)c[nH]c12` (stereo not shown) [Example 260, 2-[{5-Fluoro-7-[(methylsulfanyl)methyl]-1H-indol-3-yl}(4-methylphenyl)methyl]cyclopropane-carbonitrile] are 5.04, 5.28 and 7.41.
On the same counts, the results for `CS(=O)(=O)Cc1cccc2c(C3(C4CC4)CCc4cc(F)ccc43)c[nH]c12` (single isomer, unassigned) [Example 107-1, 3-(1-Cyclopropyl-5-fluoro-2,3-dihydro-1H-inden-1-yl)-7-[(methylsulfonyl)methyl]-1H-indole] are 5.67, 5.04 and 7.70.
On the same counts, the results for `CSCc1cccc2c(C(c3ccc(F)cc3)c3ccc(Cl)cc3F)c[nH]c12` (stereo not shown) [Example 104, 3-[(4-Chloro-2-fluorophenyl)(4-fluorophenyl)methyl]-7-[(methylsulfanyl)methyl]-1H-indole] are 5.30, 5.07 and 7.00.
Consider `CS(=O)(=O)Cc1cc(F)cc2c(C(CCC#N)c3ccc(Cl)cc3Cl)c[nH]c12` (stereo not shown) [Example 63, 4-(2,4-Dichlorophenyl)-4-{5-fluoro-7-[(methylsulfonyl)methyl]-1H-indol-3-yl}butanonitrile], for which the figures for the negative logarithm of the IC50 (pIC50) (against androgen receptor (AR); in assay [1]; in assay [2]) were 5.42, 5.32 and 7.40, respectively.
On the same counts, the results for `CS(=O)(=O)Cc1cccc2c(C(c3ccc(Cl)cc3Cl)C3CC3(F)F)c[nH]c12` (single isomer, unassigned) [Example 325-2, 3-[(2,4-Dichlorophenyl)(2,2-difluorocyclopropyl)methyl]-7-[(methylsulfonyl)methyl]-1H-indole] are 5.28, 5.18 and 7.23.
On the same counts, the results for `C[S+]([O-])Cc1cccc2c(C(CCC#N)c3ccc(Cl)cc3)c[nH]c12` (single isomer, unassigned) [Example 78-4, 4-(4-Chlorophenyl)-4-{7-[(methylsulfinyl)methyl]-1H-indol-3-yl}butanonitrile] are 5.05, 5.10 and 6.82.
On the same counts, the results for `CSCc1cc(F)cc2c(C(CCC#N)c3ccc(Cl)cc3)c[nH]c12` (stereo not shown) [Example 43, 4-(4-Chlorophenyl)-4-{5-fluoro-7-[(methylsulfanyl)methyl]-1H-indol-3-yl}butanonitrile] are 5.53, 5.70 and 7.11.
As for `CC(c1ccc(Cl)cc1F)(c1c[nH]c2c(CS(C)(=O)=O)cccc12)C1CC1` (single isomer, unassigned) [Example 111-1, 3-[1-(4-Chloro-2-fluorophenyl)-1-cyclopropylethyl]-7-[(methylsulfonyl)methyl]-1H-indole], the negative logarithm of the IC50 (pIC50) against androgen receptor (AR) is 5.60; in assay [1], 5.35; in assay [2] it was 7.52.
On the same counts, the results for `CCC(CCC#N)(c1ccc(Cl)cc1)c1c[nH]c2c(C[S+](C)[O-])cccc12` (mixture of isomers) [Example 163, 4-(4-Chlorophenyl)-4-{7-[(methylsulfinyl)methyl]-1H-indol-3-yl}hexanonitrile] are 5.32, 5.57 and 7.54.
In the case of `C[S+]([O-])Cc1cccc2c(C(c3c(F)cc(Cl)cc3F)C3CC3)c[nH]c12` (mixture of isomers) [Example 238, 3-[(4-Chloro-2,6-difluorophenyl)(cyclopropyl)methyl]-7-[(methylsulfinyl)methyl]-1H-indole], the pIC50 in assay [1] is 5.00; in assay [2], 6.72.
Turning to `CS(=O)(=O)Cc1cccc2c(C(c3ccc(C(F)(F)F)cc3)C3CC3(F)F)c[nH]c12` (mixture of isomers) [Example 324, 3-{(2,2-Difluorocyclopropyl)[4-(trifluoromethyl)phenyl]methyl}-7-[(methylsulfonyl)methyl]-1H-indole], the pIC50 in assay [1] was 5.16; in assay [2], 6.40.

One may read the pIC50 as the IC50 on a negative log10 scale, so that one unit is a factor of ten. A higher pIC50 goes with a low IC50.
